Common to all, as to type: in vivo
Data set [1] is described as follows: Bodyweight of cats fed lipoic acid fortified food. As to the method:
(§1) The study involved three groups of cats: Group 1) cats on a dry control food, Group 2) cats on a dry food fortified with approximately 65 ppm of lipoic acid, and Group 3) cats on a dry food fortified with approximately 650 ppm of lipoic acid on a dry matter basis. All cats were fled control food for a two week baseline period at the end of which time immune function assays were performed. One group of cats was then switched to the 65 ppm test food, one group to the 650 ppm test food and one group remained on control and all were fed for another 6 weeks at which time the baseline tests were performed again.

In data set [2] the test system is lymphocyte proliferation. Nature of the data set: Lymphocyte proliferation activity in old cats (overall statement). As to conditions: lipoic acid in food. Here is the method:
as §1

In data set [3] the test system is lymphocyte proliferation. Nature of the data set: Pokeweed mitogen-activated lymphocyte proliferation. Conditions: cats. As to the method: as §1
The subject of data set [4] is lymphocyte proliferation. Nature of the data set: Phytohaemagglutinin (PHA)-activated lymphocyte proliferation. Conditions: cats. As to the method: as §1
The test system of data set [5] is lymphocyte proliferation. Nature of the data set: Concanavalin A-activated lymphocyte proliferation. Conditions: cats; for Concanavalin A-activated lymphocyte proliferation compared to baseline: 6 weeks. As to the method:
as §1

The mark [6] stands for this setting: 65 ppm lipoic acid in food, 6 weeks.

As for `O=C(O)CCCC[C@@H]1CCSS1` (racemic) [lipoic acid], the effects on bodyweight entry in data set [1] (65 ppm lipoic acid in food for 6 weeks) and in data set [1] (650 ppm lipoic acid in food for 6 weeks) was “no adverse effects” throughout. Also, in the data set on lymphocyte proliferation [2], the lymphocyte proliferation activity entry is reported as “improved”. Besides, the “Pokeweed mitogen-stimulated lymphocyte proliferation compared to baseline” value in the data set on lymphocyte proliferation [3] (setting [6]) was “significantly increased”. In the data set with lymphocyte proliferation [3] (control vs 65 ppm vs 650 ppm, ANOVA, beginning and end of study), the “Pokeweed Mitogen stimulation, difference between groups” value was “different between groups (ANOVA P<0.05) at the beginning but not the end”. For the same compound, the “PHA-stimulated lymphocyte proliferation between baseline and 6 weeks” value with lymphocyte proliferation [4] (setting [6]) is given as “significant increase”. The “PHA stimulation, difference between groups” value in the data set on lymphocyte proliferation [4] (control vs 65 ppm vs 650 ppm, beginning or end) is recorded as “no significant difference”. Further, the “Concanavalin A-activated lymphocyte proliferation compared to baseline” value with lymphocyte proliferation [5] (65 ppm lipoic acid in food) is on record as “significant increase”; in the data set with lymphocyte proliferation [5] (650 ppm lipoic acid in food), “displayed an increase”. Besides, the “Concanavalin A stimulation, difference between the groups” value in the data set on lymphocyte proliferation [5] (control vs 65 ppm vs 650 ppm, beginning and end of study) was “no significant difference”.

The values are drawn from patent US20090176864A1, “Methods For Improving Hepatic and Immune Function In An Animal” (Hill's Pet Nutrition, Inc., priority 2004, published 2009).
